Columns and labels:
[1] = design: method as in PMID 20729387; settings: newborn mice, mothers received two antenatal doses of 3 mg/kg 48 and 72 h prior to delivery; cited from earlier work
[2] = tested on: premature rabbit pups with intraventricular hemorrhage; design: method as in PMID 34462350; settings: twice-daily 0.1 mg/kg; cited from earlier work
premature rabbits = tested on: premature rabbits; design: method as in PMID 26375032; settings: 3 mg/kg i.m. to the mothers 24 and 48 h prior to delivery; cited from earlier work
[3] = pharmacokinetic profiling in preterm rabbits; format: in vivo; settings: rabbit
Description: A total of 30 preterm rabbits with a GA of 28 days were featured in the pharmacokinetic study. […] Surviving pups were randomized to either receive an intratracheal (IT, local delivery, n = 15) or intraperitoneal (IP, systemic delivery, n = 15) dose of 1 mg/kg of RGZ. For IP injections, RGZ (10 mg/mL in DMSO) was dissolved in H2O + 10% Tween-80 at 0.4 mg/mL and then injected in the right flank based on the pups’ body weight. For IT injections, RGZ (50 mg/mL in DMSO; Merck KGaA) was dissolved in 80 mg/mL of Poractant alfa (Curosurf, Chiesi Farmaceutici, Parma, Italy) at 0.4 mg/mL; the injection volume was based on the pups’ body weight (2.5 mL/kg), as previously described.
Before sample collection, all pups were euthanized with a pentothal sodium overdose. All samples were stored at −20 °C until analysis.
Bioanalysis and quantification were performed using a fit-for-purpose LC/MS/MS method developed internally (LC and MS conditions already described in Section 2.2). Plasma and lung homogenate samples (lungs were homogenized with a water/acetonitrile 50/50 mixture) were extracted by means of protein precipitation with 3 volumes of acetonitrile (Sigma-Aldrich Co, St. Louise, MO, USA), and the supernatant was directly injected into the LC/MS/MS system.
The plasma and lung concentrations of RGZ were determined using a calibration curve prepared in the corresponding blank rabbit matrix (range of calibration: 2–500 ng/mL for plasma; 12–6000 ng/g for lungs) and the accuracy of the quantitation was verified using quality controls prepared in the same matrix and back-calculated on the curve.
Pharmacokinetic parameters were calculated by non-compartmental analysis using Phoenix WinNonlin (Certara L.P., Princeton, NJ, USA). The following PK parameters were calculated: Tmax, time of the maximum concentration; Cmax, maximum concentration; t1/2, half-life (calculable only in case of well-defined elimination phase); AUClast, area under the curve up to the last time point.

[4] = lung tissue binding by equilibrium dialysis; format: in vitro ADME; settings: preterm rabbit lung homogenate, 4 h, 37 °C
Description: In vitro lung tissue binding was also determined by equilibrium dialysis as described above. Preterm rabbit lungs (New Zealand White, BIOIVT) were homogenized using a Precellys tissue homogenizer (Bertin instruments, Montigny-le-Bretonneux, France). Precellys lysing vials (CK28-R, Bertin instruments) were filled with lung and buffer according to the following proportion: 1 g of tissue and 5 mL of ice-cold PBS (dilution 1:6). At the end of the homogenization process, a pool of lung homogenate was prepared mixing equal amount of homogenate from three different donors. Test compounds and the positive control were diluted in the pooled lung homogenate to a final concentration of […] and then dispensed into the red chamber of the RED device inserts. PBS was dispensed into the other side. Upon completion of 4 h of incubation (37 °C under shaking), equal aliquots were removed from each chamber and matrix matched with even volumes of lung homogenate or buffer for LC-MS/MS analyses.
Free and Bound percentages of the compounds were calculated as follows:(3) %Free=Area buffer sample/Area lung homogenate sample×100 (4) % Bound=100−%Free

[5] = design: method as in PMID 19484746; settings: PND 13 mice, chow of nursing mice with 2.5–10 mg/kg of RGZ; cited from earlier work
[6] = tested on: preterm rabbits exposed to hyperoxia; assay: quantification of blood lipid levels; format: in vivo, rabbit
Description: Whole blood samples from pups in the RGZ (1 and 10 mg/kg groups) and control groups (n = 6 per group) were obtained though cardiac puncture. Briefly, a 22G needle was inserted into the left ventricle and approximately 1.5 mL of whole blood were collected in K2-EDTA tubes and stored on ice. Within 60 min after blood draw, samples were centrifuged at 1500× g for 15 min and the […] was immediately stored at −80 °C. At the day of quantification, samples were gently thawed overnight at 4 °C and the level of triglycerides (TG), total cholesterol, high-density cholesterol (HDL), and non-HDL were determined using a Cobas 8000 modular analyzer (Roche).

newborn rats = tested on: newborn rats; design: method as in PMID 19262292; settings: daily i.p. doses as low as 0.3 mg/kg; cited from earlier work
[7] = inhaled or intranasal, plasma, intratracheal 1 mg/kg
[8] = ip, plasma, intraperitoneal 1 mg/kg
[9] = daily 1 mg/kg, PND 7, vs vehicle, p < 0.01

For CN(CCOc1ccc(CC2SC(=O)NC2=O)cc1)c1ccccn1 (stereo not shown) [RGZ, rosiglitazone], the plasma levels [1] is given as 350 ng/mL, the “myelination and neurological recovery” value [2] is given as “improved” and the “hyperoxic lung injury at PND 7” value (premature rabbits) is given as “attenuated”. For the same compound, the half-life ([3]; inhaled or intranasal, lung, intratracheal 1 mg/kg) was 900 min, the AUC(0-t) [3, 7] was 25800 ng·h/mL and the Cmax [3, 7] was 1950 ng/mL. For the same compound, the Tmax [3, 7] was 15 min, the Cmax ([3]; ip, lung, intraperitoneal 1 mg/kg) was 1020 ng/g and the Cmax [3, 8] was 2440 ng/mL. The Tmax [3, 8] was 15 min, the Kp ([3]; lung and plasma, ip, intraperitoneal 1 mg/kg, read-out: AUCLung/AUCPlasma) was 0.7 and the “Lung Tissue Binding (%)” value [4] was 94.2 ± 0.7%. For the same compound, the “RGZ in the lung tissue” value [5] was 90.7 pg/g, the “serum non-HDL” value [6, 9] was “significantly increased” and the serum total cholesterol [6, 9] was “significantly increased”. For the same compound, the serum triglycerides ([6]; daily 1 mg/kg, PND 7, vs vehicle, p < 0.05) was “significantly increased”, the serum lipids ([6]; daily 10 mg/kg, PND 7, p < 0.0001 for all lipids) was “aberrant modulation” and the alveolarization (newborn rats) was “enhanced”. For the same compound, the “surfactant synthesis (lamellar body count, SP-B and SP-C expression)” value (newborn rats) was “significantly promoted”.

Source: paper PMC9320886, “Daily Intraperitoneal Administration of Rosiglitazone Does Not Improve Lung Function or Alveolarization in Preterm Rabbits Exposed to Hyperoxia” (Pharmaceutics, 2022)
